Values after ≈ are worked out from the molar mass of the structure shown. Active and inactive are the calls of the source. No cut-off for these calls is given here.
What was measured:
[1] = Toxicity in Kunming mouse assessed as change in spleen lesions at 240 to 469 mg/kg, ip administered for 14 days by H and E staining based analysis; format: organism-based; settings: in vivo, 336 h, dose 240-469 mg/kg, time 14 day
[2] = Toxicity in female Balb/c mouse implanted with mouse 4T1 cells assessed as abnormalities in heart at 35 mg/kg, ip administered once every 2 days for 14 days; format: organism-based; settings: in vivo, 336 h, time 14 day
[3] = Toxicity in Kunming mouse assessed as change in lung morphology at 240 to 469 mg/kg, ip administered for 14 days by H and E staining based analysis; format: organism-based; settings: in vivo, 336 h, dose 240-469 mg/kg, time 14 day
[4] = tested on: 4T1; assay: Antitumor activity against mouse 4T1 cells implanted in Balb/c mouse assessed as appearance of extensive tumor cell necrosis at 25 mg/kg, ip administered once every 2 days for 14 days; format: functional, organism-based; settings: time 14.0 day
[5] = Toxicity in female Balb/c mouse implanted with mouse 4T1 cells assessed as tumor metastasis to lungs at 25 mg/kg, ip administered once every 2 days for 14 days; format: organism-based; settings: in vivo, 336 h, time 14 day
[6] = tested on: MDA-MB-231; assay: Induction of apoptosis in human MDA-MB-231 cells assessed as increase in green fluorescence at 1 uM incubated for 24 hrs in presence of doxorubicin by fluorescence microscopic analysis; format: functional, cell-based
[7] = tested on: 4T1; assay: Antitumor activity against mouse 4T1 cells implanted in Balb/c mouse assessed as appearance of mitochondrial swelling at 200 mg/kg, TOP administration once every 2 days for 14 days; format: functional, organism-based; settings: time 14.0 day
[8] = tested on: MDA-MB-231; assay: Induction of apoptosis in human MDA-MB-231 cells assessed as increase in red fluorescence at 1 uM incubated for 24 hrs in presence of doxorubicin by fluorescence microscopic analysis; format: functional, cell-based
[9] = Toxicity in female Balb/c mouse implanted with mouse 4T1 cells assessed as mortality at 80 mg/kg, IT administered once every 4 days in presence of olive oil; format: organism-based; settings: in vivo, other, 96 h
[10] = Hepatotoxicity in Kunming mouse assessed as change in ALT level administered intraperitoneally for 14 days (reference value: 45.75 +/- 4.65 U); format: toxicity; settings: in vivo, ip, 336 h, time 14 day
[11] = tested on: 4T1; assay: Antitumor activity against mouse 4T1 cells implanted in Balb/c mouse assessed as reduction in tumor size at 25 to 35 mg/kg, ip administered once every 2 days 14 days; format: functional, organism-based; settings: dose 25-35 mg/kg, time 14.0 day
[12] = Nephrotoxicity in Kunming mouse assessed as change in CREA level administered intraperitoneally for 14 days (reference value: 16 +/- 2.45 U); format: toxicity; settings: in vivo, ip, 336 h, time 14 day
[13] = Solubility of compound in 0.1 M HCL; format: physicochemical
[14] = tested on: 4T1; assay: Antitumor activity against mouse 4T1 cells implanted in Balb/c mouse assessed as appearance of vacuolation at 25 to 35 mg/kg, ip administered once every 2 days for 14 days by TEM analysis; format: functional, organism-based; settings: dose 25-35 mg/kg, time 14.0 day
[15] = tested on: MDA-MB-231; assay: Induction of apoptosis in human MDA-MB-231 cells assessed as early apoptotic cells at 1 uM incubated for 24 hrs by Annexin-V/PI staining based flow cytometric analysis (reference value: 2.69%); format: functional
[16] = tested on: 4T1; assay: Antitumor activity against mouse 4T1 cells implanted in Balb/c mouse assessed as reduction in tumor weight at 80 mg/kg, IT administered once every 4 days in presence of olive oil; format: functional, organism-based
[17] = Toxicity in Kunming mouse assessed as infiltration of chronic inflammatory cells at 240 to 469 mg/kg, ip administered for 14 days by H and E staining based analysis; format: organism-based; settings: in vivo, 336 h, dose 240-469 mg/kg, time 14 day
[18] = tested on: HepG2; assay: Antiproliferative activity against human HepG2 cells assessed as inhibition of cell proliferation incubated for 48 hrs by CCK-8 assay; format: functional, cell-based; settings: HepG2, 48 h
[19] = Nephrotoxicity in Kunming mouse assessed as change in BUN level administered intraperitoneally for 14 days (reference value: 8.65 +/- 2.66 U); format: toxicity; settings: in vivo, ip, 336 h, time 14 day
[20] = tested on: 4T1; assay: Antitumor activity against mouse 4T1 cells implanted in Balb/c mouse assessed as tumor inhibition rate at 200 mg/kg, TOP administration once every 2 days for 14 days relative to control; format: functional; design: scale not given: the % may be the effect or the level left; settings: time 14 day
[21] = Toxicity in female Balb/c mouse implanted with mouse 4T1 cells assessed as abnormalities in kidney at 35 mg/kg, ip administered once every 2 days for 14 days; format: organism-based; settings: in vivo, 336 h, time 14 day
[22] = Toxicity in female Balb/c mouse implanted with mouse 4T1 cells assessed as change in body weight at 25 to 35 mg/kg, ip administered once every 2 days; format: organism-based; settings: in vivo, 48 h, dose 25-35 mg/kg, time 2 day
[23] = tested on: MDA-MB-231; assay: Induction of apoptosis in human MDA-MB-231 cells assessed as late apoptotic cells at 1 uM incubated for 24 hrs by Annexin-V/PI staining based flow cytometric analysis (reference value: 3.24%); format: functional
[24] = tested on: 4T1; assay: Antitumor activity against mouse 4T1 cells implanted in Balb/c mouse assessed as damage in endoplasmic reticulum at 80 mg/kg, IT administered once every 4 days for 14 days in presence of olive oil by TEM analysis; format: functional, organism-based; settings: time 14.0 day
[25] = tested on: 4T1; assay: Antitumor activity against mouse 4T1 cells implanted in Balb/c mouse assessed as lighter tumor at 200 mg/kg, TOP administration once every 2 days for 14 days; format: functional, organism-based; settings: time 14.0 day
[26] = tested on: MDA-MB-231; assay: Induction of apoptosis in human MDA-MB-231 cells assessed as necrotic cells at 1 uM incubated for 24 hrs by Annexin-V/PI staining based flow cytometric analysis (reference value: 0.71%); format: functional
[27] = tested on: 4T1; assay: Antitumor activity against mouse 4T1 cells implanted in Balb/c mouse assessed as appearance of loosely arranged tumor cells at 35 mg/kg, ip administered once every 2 days for 14 days; format: functional, organism-based; settings: time 14.0 day
[28] = biological target: Phosphatidylinositol 4,5-bisphosphate 3-kinase catalytic subunit alpha (Homo sapiens) (UniProt P42336); assay: Binding affinity to P13Kalpha in human MDA-MB-231 cells assessed as thermal stabilization at 6.4 uM incubated for 2 hrs by CETSA based Western blotting analysis
Chain of Phosphatidylinositol 4,5-bisphosphate 3-kinase catalytic subunit alpha (Homo sapiens) (P42336 whole entry, looked up): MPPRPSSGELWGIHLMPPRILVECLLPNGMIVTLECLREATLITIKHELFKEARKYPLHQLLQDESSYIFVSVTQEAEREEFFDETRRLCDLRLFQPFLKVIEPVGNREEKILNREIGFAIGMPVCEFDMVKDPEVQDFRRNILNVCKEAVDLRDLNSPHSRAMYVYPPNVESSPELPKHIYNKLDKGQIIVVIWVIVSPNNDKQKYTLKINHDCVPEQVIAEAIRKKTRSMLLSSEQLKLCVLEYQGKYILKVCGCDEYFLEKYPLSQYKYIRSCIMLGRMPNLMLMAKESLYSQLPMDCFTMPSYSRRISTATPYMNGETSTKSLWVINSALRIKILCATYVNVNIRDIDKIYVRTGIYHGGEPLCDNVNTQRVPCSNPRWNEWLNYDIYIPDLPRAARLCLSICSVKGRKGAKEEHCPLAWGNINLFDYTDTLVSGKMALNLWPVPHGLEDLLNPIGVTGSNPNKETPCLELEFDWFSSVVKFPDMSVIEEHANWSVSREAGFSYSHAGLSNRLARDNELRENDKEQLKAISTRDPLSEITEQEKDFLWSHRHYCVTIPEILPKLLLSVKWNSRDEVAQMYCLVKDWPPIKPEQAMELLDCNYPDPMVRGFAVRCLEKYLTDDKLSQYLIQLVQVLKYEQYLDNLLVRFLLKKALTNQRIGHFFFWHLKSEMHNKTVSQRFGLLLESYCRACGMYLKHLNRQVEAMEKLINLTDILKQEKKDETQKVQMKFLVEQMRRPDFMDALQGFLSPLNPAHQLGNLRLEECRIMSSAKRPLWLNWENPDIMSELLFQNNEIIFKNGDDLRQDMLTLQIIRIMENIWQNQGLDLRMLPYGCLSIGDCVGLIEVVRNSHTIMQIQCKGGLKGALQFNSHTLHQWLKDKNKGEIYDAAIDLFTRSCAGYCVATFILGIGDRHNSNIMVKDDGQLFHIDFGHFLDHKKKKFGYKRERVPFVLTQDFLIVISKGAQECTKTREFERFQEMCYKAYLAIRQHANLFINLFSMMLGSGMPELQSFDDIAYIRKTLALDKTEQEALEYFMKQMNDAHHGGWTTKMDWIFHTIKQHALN

[29] = tested on: MDA-MB-231; assay: Induction of cell cycle arrest in human MDA-MB-231 cells assessed as accumulation of cells at G2/M phase at 1 uM incubated for 24 hrs by PI staining based flow cytometric analysis (reference value: 33.98%); format: functional
[30] = tested on: 4T1; assay: Antitumor activity against mouse 4T1 cells implanted in Balb/c mouse assessed as smaller tumor at 200 mg/kg, TOP administration once every 2 days for 14 days; format: functional, organism-based; settings: time 14.0 day
[31] = Toxicity in female Balb/c mouse implanted with mouse 4T1 cells assessed as change in body weight at 200 mg/kg, TOP administration once every 2 days for 14 days; format: organism-based; settings: in vivo, topical_or_ocular, 336 h, time 14 day
[32] = Toxicity in Kunming mouse assessed as lethal dose administered intraperitoneally for 14 days; settings: in vivo, route ip, time 14 day
[33] = tested on: 4T1; assay: Antitumor activity against mouse 4T1 cells implanted in Balb/c mouse assessed as appearance of nuclear membrane disruption at 80 mg/kg, IT administered once every 4 days for 14 days in presence of olive oil by TEM analysis; format: functional, organism-based; settings: time 14.0 day

For `Cc1[nH]c2ccccc2c1C1=C(F)C(=O)C(F)=C(N2CCOCC2)C1=O`, which Activity [1] is on record?
The Activity was “Non-toxic”.

And the Activity [2]?
Its Activity is “Non-toxic”.

What about the Activity [3] of the same molecule?
The Activity was “Non-toxic”.

And the Activity [4]?
The Activity was “Active”.

And the Activity [5]?
The Activity was “Toxic”.

What about the Activity [6] of the same molecule?
Its Activity is “Active; Compound Showed More Effect Than Mitoxantrone Treated Group”.

And the Activity [7]?
Its Activity is “Active”.

What about the Activity [8] of the same molecule?
The Activity was “Active; Compound Showed More Effect Than Mitoxantrone Treated Group”.

What about the Activity [9] of the same molecule?
Its Activity is “Non-toxic”.

And the Activity [10]?
Its Activity is 28.8 U/L.

And the Activity [11]?
Its Activity is “Active”.

What about the Activity [12] of the same molecule?
Its Activity is 12.25 U.

What about the solubility [13] of the same molecule?
Its solubility is 19 µg/mL (≈ 53 µM).

What about the Activity [14] of the same molecule?
The Activity was “Active”.

And the Activity [15]?
The Activity was 24.53%.

What about the Activity [16] of the same molecule?
Its Activity is “Active”.

What about the Activity [17] of the same molecule?
The Activity was “Toxic”.

And the IC50 [18]?
Its IC50 is 3.94 µM.

What about the Activity [19] of the same molecule?
Its Activity is 6.26 U.

And the Activity [20]?
The Activity was 38.9%.

What about the Activity [21] of the same molecule?
Its Activity is “Non-toxic”.

What about the Activity [22] of the same molecule?
The Activity was “Non-toxic”.

What about the Activity [23] of the same molecule?
Its Activity is 26.4%.

And the Activity [24]?
The Activity was “Active”.

What about the Activity [25] of the same molecule?
Its Activity is “Active”.

What about the Activity [26] of the same molecule?
The Activity was 3.93%.

What about the Activity [27] of the same molecule?
The Activity was “Active”.

What about the Activity [28] of the same molecule?
The Activity was “Active”.

What about the Activity [29] of the same molecule?
Its Activity is 63.64%.

What about the Activity [30] of the same molecule?
Its Activity is “Active”.

What about the Activity [31] of the same molecule?
The Activity was “Non-toxic”.

What about the LD50 at 336 h [32] of the same molecule?
The LD50 at 336 h was 385 mg/kg.

What about the Activity [33] of the same molecule?
Its Activity is “Active”.
